From patent US6028222A (priority 1996, dated 2000)
Values joined by “and” are separate entries in the source; they are usually repeats but may differ in a detail not shown here. Equal entries are not always repeated. Where two headings read alike, the source gives them in different places.

What was measured:
[1] = Stabilization of concentrated paracetamol solution by free radical scavengers; format: physicochemical; details: for Appearance upon exposure to light, color intensity: 48 hours actinic light; for Appearance at 70° C., color intensity: 48 hours, dark
Protocol: The solutions thus prepared are divided in 10 ml capacity vials, stoppered with a Bromobutyl stopper and capped with an aluminium cap. After autoclaving at 121° C. for 20 minutes, the vials were stored for 48 hours, either in the presence of actinic light at 5500° K. at room temperature or at 70° C. in the dark. The preparation was examined for any change in color.

[2] = Stabilization of dilute paracetamol solution by free radical scavengers (formula A); format: physicochemical; details: 48 hours
Protocol: (§1) The solutions thus prepared were divided in 10 ml, 100 ml or 80 ml capacity vials, stoppered with a Bromobutyl stopper and capped with an aluminium cap. The preparation was examined for any pink color development.
After autoclaving at 121° C. for 20 minutes, the vials were stored for 48 hours, either in the presence of actinic light at 5500° K. at room temperature or at 70° C. in the dark (formula A).

[3] = format: physicochemical; details: 48 hours
[4] = Stabilization of dilute paracetamol + codein phosphate solution by free radical scavengers; format: physicochemical; details: 48 hours
Protocol: The solutions thus prepared were divided in 10 ml capacity vials, stoppered with a Bromobutyl stopper and capped with an aluminium cap. […] The preparation was examined for any change in color.

[5] = Stabilization of dilute paracetamol solution by free radical scavengers (formulation B and C); format: physicochemical
Protocol: as §1

[6] = toxic metabolite of paracetamol; cited from earlier work
[7] = HPLC assay of paracetamol and codein before and after autoclaving; details: for assay, after sterilization: 121° C. 20 minutes
[8] = Paracetamol instability in solution and breakdown products; format: physicochemical
[9] = Solubility of paracetamol in dilute solutions (absorbance at 240 nm of filtrate); format: physicochemical
[10] = pH stability of concentrated paracetamol solution; format: physicochemical
Protocol: Vials that had been filled under nitrogen atmosphere by dispensing 10 ml of such solutions, tightly stoppered and capped, were sterilized by autoclaving at 121° C. for 20 minutes, and then in every case exposed, either to a temperature of 105° C. in the dark for 72 hours, or to a radiation of an actinic light at 5000° K. and 25° C. during 264 hours.

[11] = Predicted time to 5% decrease in paracetamol concentration (Arrhenius law); format: physicochemical; details: 25° C., optimal pH, aqueous solution; predicted by Arrhenius law
[12] = aqueous solution; cited from earlier work
[13] = cited from earlier work
[14] = system: extensor digitorum longus muscle; assay: Muscular tolerance (creatine kinase release from isolated muscle); set-up: species or system Sprague-Dawley rats; details: for creatine kinase activity: 15 μl injected
Protocol: The pH of this solution was not adjusted. Apparent pH is equal to 7,6.
Sprague-Dawley rats, weighing between 260 g and 450 g were anesthesized with an i.p. injection of ethyl carbamate (2 ml/kg of a 50% aqueous solution). The extensor digitorum longus muscle was dissected from the right or left hind leg, and placed in buffer medium having the following composition:
The muscle is transiently fixed to a board and maintained in position by tendons. The test product was injected in an amount of 15 μl by means of a 25 μl-capacity Hamilton seringe no 702. The muscle is then placed over a grit and immersed in the buffer solution kept at 37° C. with carbogen bubbling throughout the incubation period. At 30 minutes intervals, the muscles were introduced in a tube containing fresh buffer at 37° C. The procedure was repeated 4 times.
Creatine kinase was measured using a Hitachi 704 model analyzer in conjunction with a reagent kit sold under tradename high performance Enzyline CK NAC 10 (Biomerieux).

[15] = 0.2 mg/ml, 124° C. 7 minutes, 48 hours room temperature dark
[16] = C.R.L. 0.2 mg/ml, 124° C. 7 minutes, 48 hours room temperature dark
[17] = 50 mg/ml, 124° C. 7 minutes, 48 hours room temperature dark
[18] = containing 0.5 mg/ml of cystein hydrochloride
[19] = no free radical scavenger added

## O[C@H](CS)[C@H](O)CS (racemic) [Dithiothreitol]
[1]; 1 mg/ml
  Appearance upon exposure to light, color intensity: colorless
  Appearance at 70° C., color intensity: colorless
[2]; 1 mg/ml
  color at 70° C.: colorless
  color upon exposure to light: colorless
[3]; 1 mg/ml
  color at 70° C.: violet pink
  color upon exposure to light: violet pink
[4]; 0.5 mg/ml
  color at 70° C.: colorless
  color upon exposure to light: colorless

## Cl.N[C@@H](CS)C(=O)O.O [Cystein hydrochloride monohydrate]
[5]; [15]
  Solution appearance, color: colorless
[5]; 0.5 mg/ml, 124° C. 7 minutes, 48 hours room temperature dark
  Solution appearance, color: colorless
[5]; [16]
  Dosage of paracetamol (in % of theoretical volume): 99.2%
[5]; C.R.L. 0.5 mg/ml, 124° C. 7 minutes, 48 hours room temperature dark
  Dosage of paracetamol (in % of theoretical volume): 99.6%
[5]; dilute paracetamol solution, 2880 min, hydrochloride monohydrate
  Dosage of C.R.L. (in % of theoretical volume): 80% and 95%

## Cl.N[C@@H](CS)C(=O)O [Cystein hydrochloride]
[1]; 1 mg/ml
  Appearance upon exposure to light, color intensity: cloudy
  Appearance at 70° C., color intensity: cloudy
[2]; 0.05 mg/ml
  color at 70° C.: colorless
  color upon exposure to light: colorless
[2]; 0.1 mg/ml
  color at 70° C.: colorless
  color upon exposure to light: colorless
[2]; 0.25 mg/ml
  color at 70° C.: colorless
  color upon exposure to light: colorless
[2]; 0.5 mg/ml
  color at 70° C.: colorless
  color upon exposure to light: colorless
[2]; 0.75 mg/ml
  color at 70° C.: colorless
  color upon exposure to light: colorless
[2]; 1 mg/ml
  color at 70° C.: colorless
  color upon exposure to light: colorless
[2]; 2 mg/ml
  color at 70° C.: colorless
  color upon exposure to light: colorless
[2]; 5 mg/ml
  color at 70° C.: colorless
  color upon exposure to light: colorless
[4]; 0.05 mg/ml
  color at 70° C.: pink
[4]; 1.0 mg/ml
  color at 70° C.: colorless
  color upon exposure to light: colorless
[4]; 2.0 mg/ml
  color at 70° C.: colorless
  color upon exposure to light: colorless
[4]; 5.0 mg/ml
  color at 70° C.: colorless
  color upon exposure to light: colorless

## OC[C@@H](O)[C@@H](O)[C@H](O)[C@H](O)CO [Mannitol]
[1]; 50 mg/ml
  Appearance upon exposure to light, color intensity: colorless
  Appearance at 70° C., color intensity: colorless
[5]; 20 mg/ml, 124° C. 7 minutes, 48 hours room temperature dark
  Solution appearance, color: colorless
[5]; 40 mg/ml, 124° C. 7 minutes, 48 hours room temperature dark
  Solution appearance, color: colorless
[5]; [17]
  Solution appearance, color: colorless

## CC(=O)N=C1C=CC(=O)C=C1 [N-acetyl-p-benzoquinone-imine]
[6]
  toxic effect: cytotoxic and hemolytic effect

## CC(=O)N[C@@H](CS)C(=O)O [N-acetylcystein]
[5]; [15]
  Dosage of C.R.L. (in % of theoretical volume): 88%
  Solution appearance, color: colorless
[5]; [16]
  Dosage of paracetamol (in % of theoretical volume): 99.2%
[4]; 2.0 mg/ml
  color at 70° C.: grey
  color upon exposure to light: grey

## N[C@@H](CCC(=O)N[C@@H](CS)C(=O)NCC(=O)O)C(=O)O [Reduced glutathion]
[1]; 1 mg/ml
  Appearance upon exposure to light, color intensity: colorless
  Appearance at 70° C., color intensity: colorless
[1]; 8 mg/ml
  Appearance upon exposure to light, color intensity: colorless
  Appearance at 70° C., color intensity: colorless
[2]; 1 mg/ml
  color at 70° C.: colorless
  color upon exposure to light: colorless
[4]; 2.0 mg/ml
  color at 70° C.: colorless
  color upon exposure to light: colorless

## O=C1O[C@H]([C@@H](O)CO)C([O-])=C1O.[Na+] [Sodium ascorbate]
[1]; 1 mg/ml
  Appearance upon exposure to light, color intensity: yellow (+)
  Appearance at 70° C., color intensity: yellow (+)
[2]; 0.2 mg/ml
  color at 70° C.: pink
  color upon exposure to light: pink
[2]; 0.4 mg/ml
  color at 70° C.: yellow
  color upon exposure to light: colorless
[2]; 0.6 mg/ml
  color at 70° C.: yellow
  color upon exposure to light: pink
[2]; 1 mg/ml
  color at 70° C.: yellow
  color upon exposure to light: colorless
[3]; 1 mg/ml
  color at 70° C.: yellow
  color upon exposure to light: yellow

## O=S([O-])OS(=O)[O-].[Na+].[Na+] [Sodium disulfite]
[1]; 0.295 mg/ml
  Appearance upon exposure to light, color intensity: colorless
  Appearance at 70° C., color intensity: colorless
[3]; 0.295 mg/ml
  color at 70° C.: yellow
  color upon exposure to light: yellow
[4]; 0.295 mg/ml
  color at 70° C.: colorless
  color upon exposure to light: colorless

## NC(N)=S [Thiourea]
[2]; 0.5 mg/ml
  color at 70° C.: colorless
  color upon exposure to light: colorless

## COc1ccc2c3c1O[C@H]1[C@@H](O)C=C[C@H]4[C@@H](C2)N(C)CC[C@@]341 [codein]
[7]; [18]
  assay, non sterilized solution: 0.00042 g/mL
  assay, after sterilization: 0.00042 g/mL
[7]; [19]
  assay, non sterilized solution: 0.00043 g/mL
  assay, after sterilization: 0.00042 g/mL

## Nc1ccc(O)cc1 [p-aminophenol]
[8]; aqueous or partially aqueous solutions
  p-aminophenol during storage: not detected

## CC(=O)Nc1ccc(O)cc1 [paracetamol, N-acetyl-p-aminophenol]
[9]
  effect of PEG on paracetamol solubility: increased by the presence of PEG
[8]; 50° C., in water or in solution no 20
  time to color development: 2 weeks
[8]; in water or in solution no 20
  color upon exposure to light or storage at high temperature: shows rapidly a pink color
[10]; pH 7,0 (actual pH 5,8), actinic light, 264 hours
  Color development upon storage in the presence of light: extremely weak
[10]; storage in the presence of light
  effect of pH on paracetamol content and breakdown products: Neither the paracetamol content, nor the breakdown products are affected by pH
[11]
  time needed to observe a 5% decrease in paracetamol concentration: 19 months
[12]
  pH of minimal breakdown: ~6
[13]; 0.1% aqueous solution, dark, 120 days
  p-aminophen content from hydrolysis, % of initial paracetamol concentration: ~19,8%
[13]; 1000 ppm of ascorbic acid + EDTA (0.0075%)
  ammonia yield with EDTA added: ≤ 14%
[13]; 1000 ppm of ascorbic acid
  ammonia yield upon exposure to bright light: 98%
[13]; EDTA 0.0075%, 0.1% aqueous solution
  decomposition rate with EDTA: 7%
[13]; in presence or not of 1000 ppm of ascorbic acid
  ammonia concentration on distilling an alkaline solution: 14%
[7]; [18]
  assay, non sterilized solution: 0.0082 g/mL
  assay, after sterilization: 0.0081 g/mL
[7]; [19]
  assay, non sterilized solution: 0.0078 g/mL
  assay, after sterilization: 0.0077 g/mL

## OCC(O)CS (stereo not drawn) [α-monothioglycerol]
[1]; 1 mg/ml
  Appearance upon exposure to light, color intensity: colorless
  Appearance at 70° C., color intensity: colorless
[4]; 0.5 mg/ml
  color at 70° C.: grey
  color upon exposure to light: grey

## Glucose
[5]; [17]
  Solution appearance, color: colorless

## Triton-X
[14]; 30 min
  creatine kinase activity: 1802 ± 2114 IU/l
[14]; 60 min
  creatine kinase activity: 1716 ± 978 IU/l
[14]; 90 min
  creatine kinase activity: 155 ± 89 IU/l
[14]; 120 min
  creatine kinase activity: 289 ± 251 IU/l
[14]; Total of 30-120 min
  creatine kinase activity, Total: 14962 IU/l
